Measured values from PMC3076737 (Journal of medicinal chemistry, 2010).

Key:
human CB2 receptor = human CB2 receptor (Homo sapiens, UniProt P34972); experiment: Competitive displacement binding vs [3H]CP55,940 in hCB2 membranes; settings: read-out: Displacement vs. 3H-CP55,940: Ki (nM) in hCB2; Table 2
CB1 receptor [1] = biological target: T1, CB1 receptor (Homo sapiens, UniProt P21554); format: cell-based; settings: data not shown
CB1 receptor [2] = biological target: T1, CB1 receptor; experiment: GTP-γ-S assay of compounds 3 and 4, preparation not stated, data not shown; format: biochemical
CB1 receptor [3] = biological target: T1, CB1 receptor; format: binding; settings: data not shown
CB1 receptor [4] = biological target: T1, CB1 receptor; experiment: Competitive displacement binding vs [3H]CP55,940 in hCB1 membranes; settings: both radioligands

T1 sequence (P21554 whole entry): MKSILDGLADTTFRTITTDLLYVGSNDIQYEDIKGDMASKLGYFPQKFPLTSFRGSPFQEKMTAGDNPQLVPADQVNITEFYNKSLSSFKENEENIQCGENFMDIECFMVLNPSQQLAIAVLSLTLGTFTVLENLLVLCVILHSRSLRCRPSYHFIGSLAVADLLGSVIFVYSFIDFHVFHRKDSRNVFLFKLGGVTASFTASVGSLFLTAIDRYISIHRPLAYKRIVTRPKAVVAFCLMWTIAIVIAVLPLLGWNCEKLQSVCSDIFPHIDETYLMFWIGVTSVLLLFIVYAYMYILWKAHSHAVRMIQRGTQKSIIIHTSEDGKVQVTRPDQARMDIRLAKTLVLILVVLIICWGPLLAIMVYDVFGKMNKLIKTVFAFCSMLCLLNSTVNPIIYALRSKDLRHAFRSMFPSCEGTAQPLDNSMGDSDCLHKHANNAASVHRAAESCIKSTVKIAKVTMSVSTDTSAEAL
Sequence of human CB2 receptor (P34972 whole entry): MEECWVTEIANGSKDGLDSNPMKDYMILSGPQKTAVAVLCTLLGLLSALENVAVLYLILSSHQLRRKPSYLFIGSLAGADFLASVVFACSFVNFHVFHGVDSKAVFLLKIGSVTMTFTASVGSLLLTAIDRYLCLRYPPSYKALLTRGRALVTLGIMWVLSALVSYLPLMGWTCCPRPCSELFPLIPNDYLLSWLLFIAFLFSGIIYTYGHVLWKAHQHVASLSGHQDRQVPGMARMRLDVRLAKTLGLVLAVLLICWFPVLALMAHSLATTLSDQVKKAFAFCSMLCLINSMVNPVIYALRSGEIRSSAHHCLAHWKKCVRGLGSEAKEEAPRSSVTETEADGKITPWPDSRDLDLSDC

Compound | Ki (human CB2 receptor) | Activity in calcium assay (CB1 receptor [1]) | Activity in GTP-γ-S assay (CB1 receptor [2]) | Affinity in radiolabeled binding (CB1 receptor [3]) | further results
Cc1c(C(=O)NCCOCCOCCOCCNC(=O)c2nn(-c3ccc(Cl)cc3Cl)c(-c3ccc(Cl)cc3)c2C)nn(-c2ccc(Cl)cc2Cl)c1-c1ccc(Cl)cc1 [Compound 3, 5-(4-chlorophenyl)-N-{13-[5-(4-chlorophenyl)-1-(2,4-dichlorophenyl)-4-methyl-1H-pyrazol-3-yl]-13-oxo-3,6,9-trioxa-12-azatridec-1-yl}-1-(2,4-dichlorophenyl)-4-methyl-1H-pyrazole-3-carboxamide] |  | inactive | inactive | low affinity | 
Cc1c(C(=O)NCCCCCCCCCN(C)CCCCCCCCCNC(=O)c2nn(-c3ccc(Cl)cc3Cl)c(-c3ccc(Cl)cc3)c2C)nn(-c2ccc(Cl)cc2Cl)c1-c1ccc(Cl)cc1 [Compound 6c, N,N′-[(methylimino)dinonane-9,1-diyl]bis[5-(4-chlorophenyl)-1-(2,4-dichlorophenyl)-4-methyl-1H-pyrazole-3-carboxamide]] | > 2500 nM |  |  |  | 
Cc1c(C(=O)NCC(=O)NCC(=O)NCCN)nn(-c2ccc(Cl)cc2Cl)c1-c1ccc(Cl)cc1 [Compound 4, N-{[5-(4-chlorophenyl)-1-(2,4-dichlorophenyl)-4-methyl-1H-pyrazol-3-yl]carbonyl}glycyl-N-(2-aminoethyl)glycinamide] |  | inactive | inactive | low affinity | 
Cc1c(C(=O)NCCCCCCCNCCCCCCCNC(=O)c2nn(-c3ccc(Cl)cc3Cl)c(-c3ccc(Cl)cc3)c2C)nn(-c2ccc(Cl)cc2Cl)c1-c1ccc(Cl)cc1 [Compound 5d, N,N′-(iminodiheptane-7,1-diyl)bis[5-(4-chlorophenyl)-1-(2,4-dichlorophenyl)-4-methyl-1H-pyrazole-3-carboxamide]] |  |  |  |  | Affinity higher than the corresponding monovalent control (7d) (CB1 receptor [4]): ~4 fold

Continued, in another order:

Ki (human CB2 receptor) | Activity in calcium assay (CB1 receptor [1]) | Activity in GTP-γ-S assay (CB1 receptor [2]) | Affinity in radiolabeled binding (CB1 receptor [3]) | Compound | further results
> 2500 nM |  |  |  | Cc1c(C(=O)NCCCCCN(C)CCCCCN)nn(-c2ccc(Cl)cc2Cl)c1-c1ccc(Cl)cc1 [Compound 8a, N-{5-[(5-aminopentyl)(methyl)amino]pentyl}-5-(4-chlorophenyl)-1-(2,4-dichlorophenyl)-4-methyl-1H-pyrazole-3-carboxamide] | 
> 2500 nM |  |  |  | Cc1c(C(=O)NCCCCCCCCCCCN(C)CCCCCCCCCCCNC(=O)c2nn(-c3ccc(Cl)cc3Cl)c(-c3ccc(Cl)cc3)c2C)nn(-c2ccc(Cl)cc2Cl)c1-c1ccc(Cl)cc1 [Compound 6d, N,N′-[(methylimino)diundecane-11,1-diyl]bis[5-(4-chlorophenyl)-1-(2,4-dichlorophenyl)-4-methyl-1H-pyrazole-3-carboxamide]] | 
